# In ChEMBL document CHEMBL3217526, “Bioguided discovery and pharmacophore modeling of the mycotoxic indole diterpene alkaloids penitrems as breast cancer proliferation, migration, and invasion inhibitors” (Medchemcomm, 2013):
# How the values were obtained:
# Format in all cases: functional
# A549 = assay: Cytotoxicity against human A549 cells assessed as growth inhibition at 10 uM; details: read-out: GI
# NCI-H522 = assay: Cytotoxicity against human NCI-H522 cells assessed as growth inhibition at 10 uM; details: read-out: GI
# MDA-MB-231 [1] = assay: Cytotoxicity against human MDA-MB-231 cells assessed as growth inhibition at 10 uM; details: read-out: GI
# T47D = assay: Cytotoxicity against human T47D cells assessed as growth inhibition at 10 uM; details: read-out: GI
# HCT-116 = assay: Cytotoxicity against human HCT116 cells assessed as growth inhibition at 10 uM; details: read-out: GI
# MCF7 = assay: Cytotoxicity against human MCF7 cells assessed as growth inhibition at 10 uM; details: read-out: GI
# HOP-62 = assay: Cytotoxicity against human HOP62 cells assessed as growth inhibition at 10 uM; details: read-out: GI
# M14 = assay: Cytotoxicity against human M14 cells assessed as growth inhibition at 10 uM; details: read-out: GI
# SK-MEL-28 = assay: Cytotoxicity against human SK-MEL-28 cells assessed as growth inhibition at 10 uM; details: read-out: GI
# [2] = Cytotoxicity against human UACC62 cells assessed as growth inhibition at 10 uM; details: UACC-62, read-out: GI
# [3] = Cytotoxicity against human Hs578T cells assessed as growth inhibition at 10 uM; details: Hs-578T, read-out: GI
# [4] = Cytotoxicity against human OVCAR5 cells assessed as growth inhibition at 10 uM; details: OVCAR-5, read-out: GI
# [5] = Cytotoxicity against human EKVX cells assessed as growth inhibition at 10 uM; details: read-out: GI
# MDA-MB-435 = assay: Cytotoxicity against human MDA-MB-435 cells assessed as growth inhibition at 10 uM; details: read-out: GI
# [6] = Cytotoxicity against human OVCAR8 cells assessed as growth inhibition at 10 uM; details: OVCAR-8, read-out: GI
# SF-295 = assay: Cytotoxicity against human SF295 cells assessed as growth inhibition at 10 uM; details: read-out: GI
# [7] = Cytotoxicity against human UO31 cells assessed as growth inhibition at 10 uM; details: UO-31, read-out: GI
# DU-145 = assay: Cytotoxicity against human DU145 cells assessed as growth inhibition at 10 uM; details: read-out: GI
# [8] = Cytotoxicity against human UACC257 cells assessed as growth inhibition at 10 uM; details: UACC-257, read-out: GI
# [9] = Cytotoxicity against human OVCAR3 cells assessed as growth inhibition at 10 uM; details: OVCAR-3, read-out: GI
# SNB-19 = assay: Cytotoxicity against human SNB19 cells assessed as growth inhibition at 10 uM; details: read-out: GI
# HCC 2998 = assay: Cytotoxicity against human HCC2998 cells assessed as growth inhibition at 10 uM; details: read-out: GI
# K562 = assay: Cytotoxicity against human K562 cells assessed as growth inhibition at 10 uM; details: read-out: GI
# KM12 = assay: Cytotoxicity against human KM12 cells assessed as growth inhibition at 10 uM; details: read-out: GI
# SR = assay: Cytotoxicity against human SR cells assessed as growth inhibition at 10 uM; details: read-out: GI
# SK-MEL-2 = assay: Cytotoxicity against human SK-MEL-2 cells assessed as growth inhibition at 10 uM; details: read-out: GI
# SK-OV-3 = assay: Cytotoxicity against human SKOV3 cells assessed as growth inhibition at 10 uM; details: read-out: GI
# COLO 205 = assay: Cytotoxicity against human COLO205 cells assessed as growth inhibition at 10 uM; details: read-out: GI
# SF-268 = assay: Cytotoxicity against human SF268 cells assessed as growth inhibition at 10 uM; details: read-out: GI
# BT-549 = assay: Cytotoxicity against human BT549 cells assessed as growth inhibition at 10 uM; details: read-out: GI
# NCI-H322M = assay: Cytotoxicity against human NCI-H322M cells assessed as growth inhibition at 10 uM; details: read-out: GI
# NCI-H226 = assay: Cytotoxicity against human NCI-H226 cells assessed as growth inhibition at 10 uM; details: read-out: GI
# TK-10 = assay: Cytotoxicity against human TK10 cells assessed as growth inhibition at 10 uM; details: read-out: GI
# PC-3 = assay: Cytotoxicity against human PC3 cells assessed as growth inhibition at 10 uM; details: read-out: GI
# MDA-MB-231 [10] = assay: Antiinvasive activity against human MDA-MB-231 cells assessed as inhibition of cell invasion at 15 uM after 24 hrs by BME Cell invasion assay kit; details: MDA-MB-231, 24 h
# IGROV-1 = assay: Cytotoxicity against human IGROV1 cells assessed as growth inhibition at 10 uM; details: read-out: GI
# HL-60(TB) = assay: Cytotoxicity against human HL-60(TB) cells assessed as growth inhibition at 10 uM; details: read-out: GI
# RXF 393 = assay: Cytotoxicity against human RXF393 cells assessed as growth inhibition at 10 uM; details: read-out: GI
# NCI-H460 = assay: Cytotoxicity against human NCI-H460 cells assessed as growth inhibition at 10 uM; details: read-out: GI
# CCRF-CEM = assay: Cytotoxicity against human CCRF-CEM cells assessed as growth inhibition at 10 uM; details: read-out: GI
# LOX IMVI = assay: Cytotoxicity against human LOXIMVI cells assessed as growth inhibition at 10 uM; details: read-out: GI
# MDA-MB-468 = assay: Cytotoxicity against human MDA-MB-468 cells assessed as growth inhibition at 10 uM; details: read-out: GI
# [11] = Cytotoxicity against human HCT15 cells assessed as growth inhibition at 10 uM; details: HCT-15, read-out: GI
# SK-MEL-5 = assay: Cytotoxicity against human SK-MEL-5 cells assessed as growth inhibition at 10 uM; details: read-out: GI
# MOLT-4 = assay: Cytotoxicity against human MOLT4 cells assessed as growth inhibition at 10 uM; details: read-out: GI
# ACHN = assay: Cytotoxicity against human ACHN cells assessed as growth inhibition at 10 uM; details: read-out: GI
# U-251 = assay: Cytotoxicity against human U251 cells assessed as growth inhibition at 10 uM; details: read-out: GI
# Malme-3M = assay: Cytotoxicity against human MALME-3M cells assessed as growth inhibition at 10 uM; details: read-out: GI
# SNB-75 = assay: Cytotoxicity against human SNB75 cells assessed as growth inhibition at 10 uM; details: read-out: GI
# 786-0 = assay: Cytotoxicity against human 786-0 cells assessed as growth inhibition at 10 uM; details: read-out: GI
# CAKI-1 = assay: Cytotoxicity against human CAKI-1 cells assessed as growth inhibition at 10 uM; details: read-out: GI
# SW-620 = assay: Cytotoxicity against human SW620 cells assessed as growth inhibition at 10 uM; details: read-out: GI
# SF-539 = assay: Cytotoxicity against human SF539 cells assessed as growth inhibition at 10 uM; details: read-out: GI
# HT-29 = assay: Cytotoxicity against human HT-29 cells assessed as growth inhibition at 10 uM; details: read-out: GI
# SN12C = assay: Cytotoxicity against human SN12C cells assessed as growth inhibition at 10 uM; details: read-out: GI
# NCI-H23 = assay: Cytotoxicity against human NCI-H23 cells assessed as growth inhibition at 10 uM; details: read-out: GI
smiles,measurement,setting,value
C=C(C)[C@H]1O[C@H]2CC[C@@]3(C)[C@@](O)(CC[C@H]4[C@@H]5OC(C)(C)[C@H]6C[C@@H]7C(=C)Cc8c(Cl)cc9[nH]c(c5c9c8[C@@]76O)[C@@]43C)[C@@]23O[C@H]3[C@H]1O [PENITREM A],inhibition of growth at 10 µM,A549,73.7%
same,inhibition of growth at 10 µM,NCI-H522,77.1%
same,inhibition of growth at 10 µM,MDA-MB-231 [1],97.5%
same,inhibition of growth at 10 µM,T47D,73.9%
same,inhibition of growth at 10 µM,HCT-116,67.4%
same,inhibition of growth at 10 µM,MCF7,55.8%
same,inhibition of growth at 10 µM,HOP-62,107%
same,inhibition of growth at 10 µM,M14,62.6%
same,inhibition of growth at 10 µM,SK-MEL-28,83.4%
same,inhibition of growth at 10 µM,[2],74.9%
same,inhibition of growth at 10 µM,[3],94%
same,inhibition of growth at 10 µM,[4],105%
same,inhibition of growth at 10 µM,[5],76.3%
same,inhibition of growth at 10 µM,MDA-MB-435,52.9%
same,inhibition of growth at 10 µM,[6],83.2%
same,inhibition of growth at 10 µM,SF-295,57.1%
same,inhibition of growth at 10 µM,[7],41%
same,inhibition of growth at 10 µM,DU-145,85.5%
same,inhibition of growth at 10 µM,[8],76.2%
same,inhibition of growth at 10 µM,[9],92.6%
same,inhibition of growth at 10 µM,SNB-19,67.7%
same,inhibition of growth at 10 µM,HCC 2998,77%
same,inhibition of growth at 10 µM,K562,66.1%
same,inhibition of growth at 10 µM,KM12,71.5%
same,inhibition of growth at 10 µM,SR,46%
same,inhibition of growth at 10 µM,SK-MEL-2,95.1%
same,inhibition of growth at 10 µM,SK-OV-3,109%
same,inhibition of growth at 10 µM,COLO 205,91.3%
same,inhibition of growth at 10 µM,SF-268,71%
same,inhibition of growth at 10 µM,BT-549,98.2%
same,inhibition of growth at 10 µM,NCI-H322M,65.2%
same,inhibition of growth at 10 µM,NCI-H226,76.8%
same,inhibition of growth at 10 µM,TK-10,98.6%
same,inhibition of growth at 10 µM,PC-3,39.3%
same,inhibition at 15 µM,MDA-MB-231 [10],> 75%
same,inhibition of growth at 10 µM,IGROV-1,74.9%
same,inhibition of growth at 10 µM,HL-60(TB),74.7%
same,inhibition of growth at 10 µM,RXF 393,76.5%
same,inhibition of growth at 10 µM,NCI-H460,85.5%
same,inhibition of growth at 10 µM,CCRF-CEM,57.2%
same,inhibition of growth at 10 µM,LOX IMVI,79.4%
same,inhibition of growth at 10 µM,MDA-MB-468,69.6%
same,inhibition of growth at 10 µM,[11],78.7%
same,inhibition of growth at 10 µM,SK-MEL-5,68.3%
same,inhibition of growth at 10 µM,MOLT-4,53.2%
same,inhibition of growth at 10 µM,ACHN,75.2%
same,inhibition of growth at 10 µM,U-251,85.1%
same,inhibition of growth at 10 µM,Malme-3M,43.2%
same,inhibition of growth at 10 µM,SNB-75,53.7%
same,inhibition of growth at 10 µM,786-0,93.1%
same,inhibition of growth at 10 µM,CAKI-1,35.5%
same,inhibition of growth at 10 µM,SW-620,93.3%
same,inhibition of growth at 10 µM,SF-539,89%
same,inhibition of growth at 10 µM,HT-29,86.9%
same,inhibition of growth at 10 µM,SN12C,73.3%
same,inhibition of growth at 10 µM,NCI-H23,88.6%
